Data published in patent US8343957B2, “Therapeutic pyrazoloquinoline urea derivatives” (Dart Neuroscience (Cayman) Ltd., priority 2007, dated 2013).
pIC50: −log10 of the molar value.

Target: GABAA central benzodiazepine receptor
Experiment: Benzodiazepine Binding Assay
Details: read-out: BZ binding Assay IC50; 1 nM (3H)-flunitrazepam, rat whole brain (except cerebellum) membranes, 60 minutes at 25° C.

pIC50 | SMILES
> 6.00 | O=C(N1CCCCC1)n1cc2c(=O)n(-c3ccccc3)nc-2c2ccccc21 [Compd 12, 5-(Piperidine-1-carbonyl)-2-phenyl-2,5-dihydro-pyrazolo-(4,3-c)quinolin-3-one]
> 6.00 | COCCN1CCN(C(=O)n2cc3c(=O)n(-c4ccccc4)nc-3c3ccccc32)CC1 [Compd 7, 5-(4-(2-Methoxyethyl)-piperazine-1-carbonyl)-2-phenyl-2,5-dihydro-pyrazolo-(4,3-c)quinolin-3-one]
> 6.00 | CC(C)N1CCN(C(=O)n2cc3c(=O)n(-c4ccccc4F)nc-3c3ccccc32)CC1 [Compd 15, 5-(4-Isopropylpiperazine-1-carbonyl)-2-(2′-fluorophenyl)-2,5-dihydro-pyrazolo-(4,3-c)quinolin-3-one]
> 6.00 | COc1ccc2c(c1)c1nn(-c3ccccc3)c(=O)c-1cn2C(=O)N1CCN(C)CC1 [Compd 42, 8-Methoxy-5-(4-methylpiperazine-1-carbonyl)-2-phenyl-2,5-dihydro-pyrazolo-(4,3-c)quinolin-3-one]
> 6.00 | CN1CCN(C(=O)n2cc3c(=O)n(-c4ccccc4)nc-3c3cc(F)c(F)cc32)CC1 [Compd 22, 5-(4-Methylpiperazine-1-carbonyl)-7,8-difluoro-2-phenyl-2,5-dihydro-pyrazolo-(4,3-c)quinolin-3-one]
> 6.00 | CC1CN(C(=O)n2cc3c(=O)n(-c4ccccc4)nc-3c3ccccc32)CC(C)N1 (stereo not drawn) [Compd 11, 5-(3,5-Dimethylpiperazine-1-carbonyl)-2-phenyl-2,5-dihydro-pyrazolo-(4,3-c)quinolin-3-one]
< 6.00 | O=C(N1CCC(O)CC1)n1cc2c(=O)n(-c3ccccc3)nc-2c2cc(F)c(F)cc21 [Compd 51, 5-(4-Hydroxypiperidine-1-carbonyl)-2-phenyl-7,8-difluoro-2,5-dihydro-pyrazolo[4,3-c]quinolin-3-one]
> 9.00 | CC(C)N1CCN(C(=O)n2cc3c(=O)n(-c4ccccc4)nc-3c3cc(C(F)(F)F)ccc32)CC1 [Compd 46, 5-(4-Isopropyl-piperazine-1-carbonyl)-2-phenyl-8-trifluoromethyl-2,5-dihydro-pyrazolo[4,3-c]quinolin-3-one]
> 6.00 | O=C(N1CCN(c2ccccc2)CC1)n1cc2c(=O)n(-c3ccccc3)nc-2c2cc(F)ccc21 [Compd 37, 5-(4-Phenylpiperazine-1-carbonyl)-8-fluoro-2-phenyl-2,5-dihydro-pyrazolo-(4,3-c)quinolin-3-one]
